Assay results: patent US8815954B2, “Arginine heteromers for topical administration” (Revance Therapeutics, Inc., priority 2005, dated 2014)

What was measured:
murine skin = assay: In vivo cumulative efficacy for topical delivery of arginine across murine skin; morphological assessment of treated skin sections by image analysis; set-up: species or system C57 black 6 female mice; conditions: mice, topical 200 μl once daily for 7 days in Cetaphil cream, dorsal skin harvested 24 hours after last treatment, H&E image analysis
Experimental: In vivo cumulative efficacy for topical delivery of arginine across murine skin.
The potential for a heteromer of arginine to cross the skin and exert previously characterized benefits related to arginine/NOS activity was evaluated by examining arginine-vitamin E and arginine-palmitate heteromers in an animal model system. While both heteromers improve the lipid solubility relative to arginine alone and should increase transdermal flux, the vitamin E heteromer is also expected to afford additional functional benefits due to its anti-oxidant properties.
1. Arg-palmitate: 0.9996 g of arginine+palmitate were dissolved in 6 ml of jojoba oil (Essential Wholesale, Portland, Oreg.), then diluted with 6 ml (1:1 dilution) of Cetaphil cream.
2. Arg-vitamin E: 0.419 g of arginine+vitamin E were dissolved in 6 ml of deionized H2O then diluted with 6 ml (1:1 dilution) of Cetaphil cream.
Daily-dose topical treatments of metered 200 μl aliquots were prepared for treatments of Arg-palmitate, Arg-vitamin E, or Cetaphil control in 650 μl microcentrifuge tubes.
Animals (C57 black 6 female mice, Charles River Laboratories, Wilmington, Mass.) were anesthetized via inhalation of isoflurane mixed with oxygen and then injected with 0.5 ml rodent anesthetic cocktail (3.75 ml of 100 mg/ml Ketamine, 3.00 ml of 20 mg/ml Xylazine, and 23.25 ml of saline) intraperitoneally. The animals were supplemented with isoflurane as necessary. Treatment groups contained 4 mice each and the control group 3 mice. After being anesthetized, a 2.0 cm×2.0 cm dose site on the dorsum of each mouse was carefully shaved with a hair clipper on the first day of treatment application and animals underwent depilatory treatment in the same dorsal region using a rosin mixture (Surgiwax, Ardell International, Los Angeles, Calif.). Animals were anesthetized via inhalation of isoflurance only during the application of treatments in Cetaphil moisturizing cream (Galderma, Fort Worth, Tex.) and had metered 200 μl doses of the appropriate treatment applied to the cranial portion of dorsal back skin (selected because the mouse cannot reach this region with mouth or limbs). Animals remained under anesthesia for 1-2 minutes while the appropriate treatment was applied into the skin with small metal spatula. […]
High resolution digital images of each section were obtained using a Retiga 1300B camera (QImaging, Burnaby, BC, Canada). Images were analyzed using Image-Pro Plus analysis software (Media Cybernetics, Silver Springs, Md.) to determine morphological assessment and expressed as positive pixels. Mean and standard error were subsequently determined for each group using Statview software (Abacus, Berkeley, Calif.), with analysis of significance at 95% confidence in Wilcoxon signed ranks.

[1] = test system: human forehead skin perfusion; assay: Human forehead tissue perfusion by Laser Doppler Flowmeter after topical application; assay type: in vivo; conditions: lip balm formulation 4.0 mg/ml topical, readings every 30 seconds for 5 minutes from one minute after application (n=55)
Experimental: Mean and standard error were assessed using Statview (Abacus Concepts, Berkeley, Calif.), with comparisons made using ANOVA repeated measures and significance determined at 95% with post-hoc testing using Fisher PLSD or Scheffe F-test. All procedures and analyses were performed by blinded observers.

Cc1c(C)c2c(c(C)c1OC(=O)C(N)CCCNC(=N)N)CCC(C)(CCCC(C)CCCC(C)CCCC(C)C)O2 (centres unmarked) [Arg-Vitamin E]
Dermis: dermal thickness, Mean (murine skin): 35779 positive pixels | Epidermis: epidermal thickness, Mean (murine skin): 16475 positive pixels | Fat: fat thickness/density, Mean (murine skin): 21386 positive pixels | Hair: hair length, Mean (murine skin): 18316 positive pixels | Forehead perfusion, Mean [1]: 8.016 tissue perfusion units
